Experimental data reported in EPA's ToxRefDB 2.

What was measured:
mouse [1] = details: Subchronic oral toxicity in rodents, b6c3f1, Gavage/Intubation, dose end: 13 week, group: systemic
rat [2] = details: Subchronic oral toxicity in rodents, fischer, Gavage/Intubation, dose end: 13 week, group: systemic
rat [3] = details: Prenatal developmental toxicity study, sprague dawley, Oral, Gavage/Intubation, dose end: 15 GD
rat [4] = details: Combined chronic toxicity/carcinogenicity, sprague dawley, Oral, Feed, dose end: 2 year, group: systemic
rat [5] = details: Subchronic oral toxicity in rodents, sprague dawley, Feed, dose end: 3 month, group: systemic
mouse [6] = details: Combined chronic toxicity/carcinogenicity, cd1, Oral, Feed, dose end: 24 month, group: systemic
dog [7] = details: Chronic toxicity, beagle, Oral, Feed, dose end: 1 year, group: systemic
mouse [8] = details: Subchronic oral toxicity in rodents, cd1, Feed, dose end: 3 month, group: systemic
dog [9] = details: Chronic toxicity, beagle, Oral, Feed, dose end: 53 week, group: systemic
rabbit = details: Prenatal developmental toxicity study, new zealand white, Oral, Gavage/Intubation, dose end: 19 GD
rat [10] = details: Combined chronic toxicity/carcinogenicity; sprague dawley; Oral; Feed; dose end: 2 year; group: systemic; systemic / hematology / lymphocyte / lymphocyte + systemic / hematology / neutrophils / neutrophils + systemic / in life observation / body …
rat [11] = details: Multigenerational reproductive toxicity study, sprague dawley, Oral, Feed, dose end: 2 generation
dog [12] = details: Subchronic oral toxicity in nonrodent, beagle, Feed, dose end: 13 week, group: systemic
mouse [13] = details: Carcinogenicity; cd1; Oral; Feed; dose end: 18 month; group: systemic; systemic / pathology microscopic / adrenal gland / eosinophilic focus + systemic / pathology microscopic / liver / hypertrophy + systemic / …
dog [14] = details: Chronic toxicity; beagle; Oral; Feed; dose end: 52 week; group: systemic; systemic / hematology / nucleated red blood cell (nrbc) / nucleated red blood cell (nrbc) + systemic / in life observation / clinical signs…
rat [15] = details: Multigenerational reproductive toxicity study, sprague dawley, Oral, Feed, dose end: 2 generation; remark: listed apart in the source
rat [16] = details: Subchronic oral toxicity in rodents, sprague dawley, Feed, dose end: 90 day, group: systemic
[17] = systemic / in life observation / clinical signs / hyperactivity + systemic / in life observation / mortality / mortality + systemic / …
[18] = systemic / clinical chemistry / albumin / albumin + systemic / clinical chemistry / protein / protein + systemic / hematology / mean …
[19] = systemic / in life observation / clinical signs / lacrimation + systemic / hematology / mean corpuscular (cell) volume (mcv) / mean …
[20] = group: developmental, developmental / developmental malformation / bone / cervical + developmental / developmental malformation / bone / short supernumerary
[21] = group: maternal, systemic / in life observation / clinical signs / fur (altered appearance) + systemic / in life observation / clinical signs / salivation
[22] = group: maternal, systemic / in life observation / clinical signs / fur (altered appearance) + systemic / in life observation / clinical signs / salivation + …
[23] = systemic / organ weight / testes / nos + systemic / pathology microscopic / testes / atrophy
[24] = systemic / organ weight / testes / nos + systemic / pathology microscopic / testes / atrophy + systemic / in life observation / body weight…
[25] = systemic / clinical chemistry / hepatic mixed function oxidase (mfo) assay / hepatic mixed function oxidase (mfo) assay
[26] = systemic / clinical chemistry / hepatic mixed function oxidase (mfo) assay / hepatic mixed function oxidase (mfo) assay + systemic / …
[27] = systemic / organ weight / liver / relative to body weight
[28] = systemic / pathology microscopic / liver / hypertrophy
[29] = systemic / pathology microscopic / adrenal gland / hypertrophy + systemic / pathology microscopic / liver / hypertrophy + systemic / …
[30] = systemic / pathology microscopic / liver / hypertrophy + systemic / clinical chemistry / alanine aminotransferase (alt/sgpt) / alanine …
[31] = group: developmental, developmental / offspring survival late / viability index / viability index
[32] = group: maternal, reproductive / reproductive performance / resorptions / resorptions + systemic / in life observation / body weight / body weight + systemic…
[33] = group: offspring, systemic / in life observation / body weight / offspring (pup) weight gain
[34] = group: offspring, systemic / in life observation / body weight / offspring (pup) weight gain + developmental / offspring survival late / viability index / …
[35] = group: parental, systemic / organ weight / liver / nos + systemic / organ weight / liver / relative to body weight + systemic / in life observation / food …
[36] = group: parental, systemic / organ weight / liver / nos + systemic / organ weight / liver / relative to body weight + systemic / pathology microscopic / liver…
[37] = group: reproductive, reproductive / offspring survival early / birth index / live birth index
[38] = systemic / pathology microscopic / liver / hypertrophy + systemic / clinical chemistry / alkaline phosphatase (alp/alk) / alkaline …
[39] = group: offspring, systemic / in life observation / body weight / offspring (pup) weight + systemic / pathology gross / heart / enlarged + systemic / pathology…
[40] = group: parental, systemic / in life observation / clinical signs / dental fluorosis
[41] = group: parental, systemic / in life observation / clinical signs / dental fluorosis + systemic / in life observation / clinical signs / teeth whitening
[42] = systemic / clinical chemistry / alanine aminotransferase (alt/sgpt) / alanine aminotransferase (alt/sgpt)
[43] = systemic / pathology gross / stomach / discolored + systemic / pathology gross / stomach / foci + systemic / pathology gross / stomach / …

In the case of `C[N+](C)(C)Cc1ccccc1.[Cl-]` [Benzyltrimethylammonium chloride], the LEL (mouse [1]; systemic / clinical chemistry / protein / protein) is reported as 25 mg/kg/day, the NEL (mouse [1]; systemic / clinical chemistry / protein / protein + systemic / in life observation / mortality / mortality + systemic / organ weight / heart…) is reported as 12.5 mg/kg/day and the LOAEL (mouse [1]; [17]) is reported as > 100 mg/kg/day. The NOAEL (mouse [1]; [17]) was ≥ 100 mg/kg/day, the LOAEL (rat [2]; [18]) was > 100 mg/kg/day and the NOAEL (rat [2]; [18]) was ≥ 100 mg/kg/day. The LEL (rat [2]; [19]) was 12.5 mg/kg/day and the NEL (rat [2]; [19]) was < 12.5 mg/kg/day.

With `CCCCC(C#N)(Cn1cncn1)c1ccc(Cl)cc1` (stereo not drawn) [Myclobutanil] the LEL (rat [3]; [20]) was 313 mg/kg/day, the LOAEL (rat [3]; [20]) was 313 mg/kg/day and the NEL (rat [3]; [20]) was 93.8 mg/kg/day. It also gave an NOAEL (rat [3]; [20]) of 93.8 mg/kg/day, an LEL (rat [3]; [21]) of 313 mg/kg/day and an LOAEL (rat [3]; [21]) of 313 mg/kg/day. The NEL (rat [3]; [22]) was 93.8 mg/kg/day, the NOAEL (rat [3]; [22]) was 93.8 mg/kg/day and the LEL (rat [4]; [23]) was 9.84 mg/kg/day. For the same compound, the LOAEL (rat [4]; [23]) was 9.84 mg/kg/day, the NEL (rat [4]; [24]) was 2.49 mg/kg/day and the NOAEL (rat [4]; [24]) was 2.49 mg/kg/day. The LEL (rat [5]; [25]) was 15 mg/kg/day, the NEL (rat [5]; [25]) was < 15 mg/kg/day and the LOAEL (rat [5]; systemic / organ weight / kidney / nos + systemic / organ weight / liver / nos) was 150 mg/kg/day. For the same compound, the NOAEL (rat [5]; systemic / organ weight / kidney / nos + systemic / organ weight / liver / nos + systemic / clinical chemistry / albumin-globulin ratio / …) was 50 mg/kg/day, the LEL (mouse [6]; [25]) was 16.5 mg/kg/day and the LOAEL (mouse [6]; [25]) was 16.5 mg/kg/day. The NEL (mouse [6]; [26]) was 3.2 mg/kg/day, the NOAEL (mouse [6]; [26]) was 3.2 mg/kg/day and the LEL (dog [7]; [27]) was 0.4 mg/kg/day. The NEL (dog [7]; [27]) was < 0.4 mg/kg/day, the LOAEL (dog [7]; [28]) was 14.3 mg/kg/day and the NOAEL (dog [7]; systemic / pathology microscopic / liver / hypertrophy + systemic / organ weight / liver / relative to body weight + systemic / organ weight…) was 3.09 mg/kg/day. It also gave an LOAEL (mouse [8]; [29]) of 150 mg/kg/day, an NEL (mouse [8]; [29]) of 45 mg/kg/day and an NOAEL (mouse [8]; [29]) of 45 mg/kg/day. For the same compound, the LEL (mouse [8]; systemic / pathology microscopic / adrenal gland / hypertrophy + systemic / pathology microscopic / liver / necrosis + systemic / pathology …) was 150 mg/kg/day, the LOAEL (dog [9]; [28]) was 14.3 mg/kg/day and the NEL (dog [9]; [30]) was 3.09 mg/kg/day. It also gave an NOAEL (dog [9]; [30]) of 3.09 mg/kg/day, an LEL (dog [9]; systemic / pathology microscopic / liver / hypertrophy + systemic / hematology / mean corpuscular hemoglobin (mch) / mean corpuscular …) of 14.3 mg/kg/day and an LEL (rabbit; [31]) of 200 mg/kg/day. For the same compound, the LOAEL (rabbit; [31]) was 200 mg/kg/day, the NEL (rabbit; [31]) was 60 mg/kg/day and the NOAEL (rabbit; [31]) was 60 mg/kg/day. It also gave an LEL (rabbit; [32]) of 200 mg/kg/day, an LOAEL (rabbit; [32]) of 200 mg/kg/day and an NEL (rabbit; [32]) of 60 mg/kg/day. For the same compound, the NOAEL (rabbit; [32]) was 60 mg/kg/day, the LEL (rat [10]) was 125 mg/kg/day and the LOAEL (rat [10]) was > 125 mg/kg/day. The NEL (rat [10]) was < 125 mg/kg/day, the NOAEL (rat [10]) was ≥ 125 mg/kg/day and the NEL (rat [11]; [33]) was 10 mg/kg/day. The NOAEL (rat [11]; [33]) was 10 mg/kg/day, the LEL (rat [11]; [34]) was 50 mg/kg/day and the LOAEL (rat [11]; [34]) was 50 mg/kg/day. It also gave an NEL (rat [11]; [35]) of 2.5 mg/kg/day, an NOAEL (rat [11]; [35]) of 2.5 mg/kg/day and an LEL (rat [11]; [36]) of 10 mg/kg/day. For the same compound, the LOAEL (rat [11]; [36]) was 10 mg/kg/day, the LEL (rat [11]; [37]) was 10 mg/kg/day and the LOAEL (rat [11]; [37]) was 50 mg/kg/day. It also gave an NEL (rat [11]; [37]) of 2.5 mg/kg/day, an NOAEL (rat [11]; [37]) of 10 mg/kg/day and an LOAEL (dog [12]; [28]) of 5 mg/kg/day. The NEL (dog [12]; [38]) was 0.25 mg/kg/day, the NOAEL (dog [12]; [38]) was 0.25 mg/kg/day and the LEL (dog [12]; systemic / pathology microscopic / liver / hypertrophy + systemic / pathology microscopic / kidney / inflammation) was 5 mg/kg/day. For the same compound, the LEL (mouse [13]) was 394 mg/kg/day, the LOAEL (mouse [13]) was 394 mg/kg/day and the NEL (mouse [13]) was < 394 mg/kg/day. For the same compound, the NOAEL (mouse [13]) was < 394 mg/kg/day.

`[F][Al-3]([F])([F])([F])([F])[F].[Na+].[Na+].[Na+]` [Cryolite] was tested, and the LEL (dog [14]) was 95 mg/kg/day, the LOAEL (dog [14]) was 95 mg/kg/day and the NEL (dog [14]) was < 95 mg/kg/day. The NOAEL (dog [14]) was < 95 mg/kg/day, the LOAEL (rat [15]; group: offspring, systemic / in life observation / body weight / offspring (pup) weight) was 128 mg/kg/day and the LEL (rat [15]; [39]) was 128 mg/kg/day. It also gave an NEL (rat [15]; [39]) of 42 mg/kg/day, an NOAEL (rat [15]; [39]) of 42 mg/kg/day and an LOAEL (rat [15]; [40]) of 14 mg/kg/day. For the same compound, the NOAEL (rat [15]; [40]) was < 14 mg/kg/day, the LEL (rat [15]; [41]) was 14 mg/kg/day and the NEL (rat [15]; [41]) was < 14 mg/kg/day. The LEL (rat [16]; [42]) was 4.5 mg/kg/day, the NEL (rat [16]; [42]) was < 4.5 mg/kg/day and the LOAEL (rat [16]; [43]) was 399 mg/kg/day. For the same compound, the NOAEL (rat [16]; [43]) was 3.8 mg/kg/day.
